Laboratory results taken from ChEMBL document CHEMBL1129948, “Synthesis and anti-trypanosomal activity of various 8-aza-7-deaza-5'noraristeromycin derivatives” (J Med Chem, 1997).
Calls of active or inactive are those of the source. The calls are words filed in the database; no cut-off is given here.

Key:
Vero = assay: Cytotoxic activity of compound against Vero cell line; No toxicity; format: functional, cell-based; conditions: Chlorocebus sabaeus
Trypanosoma brucei [1] = assay: (§1) Inhibition of growth of Trypanosoma uM); format: functional, organism-based
Trypanosoma brucei [2] = assay: as §1; format: functional, organism-based; remark: listed apart in the source
HeLa = assay: Cytotoxic activity of compound against HeLa cell line; No toxicity; format: functional, cell-based; conditions: Homo sapiens
HEL = assay: Cytotoxic activity of compound against HEL cell line; No toxicity; format: functional, cell-based; conditions: Homo sapiens
Trypanosoma brucei [3] = assay: as §1; format: functional, organism-based; remark: listed apart in the source
Trypanosoma brucei [4] = assay: as §1; format: functional, organism-based; remark: listed apart in the source
E6SM = assay: Cytotoxic activity of compound against E6SM cell line; No toxicity; format: functional, cell-based; conditions: Homo sapiens
Trypanosoma brucei [5] = assay: (§2) Inhibition of growth of Trypanosoma uM concentration; format: functional, organism-based
Trypanosoma brucei [6] = assay: as §2; format: functional, organism-based; remark: listed apart in the source
Trypanosoma brucei [7] = assay: as §2; format: functional, organism-based; remark: listed apart in the source
Trypanosoma brucei [8] = assay: as §2; format: functional, organism-based; remark: listed apart in the source
Trypanosoma brucei [9] = assay: as §2; format: functional
Trypanosoma brucei [10] = assay: as §2; format: functional; remark: listed apart in the source

| IC50 (Trypanosoma brucei [1]) | IC50 (Trypanosoma brucei [2]) | IC50 (Trypanosoma brucei [3]) | IC50 (Trypanosoma brucei [4]) | IC50 (Trypanosoma brucei [5]) | IC50 (Trypanosoma brucei [6]) | IC50 (Trypanosoma brucei [7]) | IC50 (Trypanosoma brucei [8]) | Compound | Cytotoxic activity (Vero) | Cytotoxic activity (HeLa) | Cytotoxic activity (HEL) | Cytotoxic activity (E6SM) | Inhibition (Trypanosoma brucei [9]) | Inhibition (Trypanosoma brucei [10]) |
| --- | --- | --- | --- | --- | --- | --- | --- | --- | --- | --- | --- | --- | --- | --- |
| – | – | – | – | 67 µM | 44 µM | 72 µM | 53 µM | Nc1ncnc2c1cnn2[C@H]1C[C@@H](O)[C@H](O)[C@@H]1O | No toxicity | No toxicity | No toxicity | No toxicity | – | – |
| > 100 µM | > 100 µM | – | – | – | – | – | – | Nc1ncnc2c1cnn2[C@@H]1C[C@H](O)[C@@H](O)[C@H]1O | No toxicity | No toxicity | No toxicity | No toxicity | – | – |
| > 100 µM | > 100 µM | > 100 µM | > 100 µM | – | – | – | – | Nc1ncnc2c1cnn2[C@@H]1CC[C@@H](O)[C@H]1O | No toxicity | No toxicity | No toxicity | No toxicity | – | – |
| – | – | – | – | – | > 100 µM | – | > 100 µM | Nc1ncnc2c1cnn2[C@H]1C=C[C@H](O)[C@@H]1O | No toxicity | No toxicity | No toxicity | No toxicity | – | – |
| > 100 µM | > 100 µM | > 100 µM | > 100 µM | – | – | – | – | C[C@@H]1C[C@H](n2ncc3c(N)ncnc32)[C@@H](O)[C@H]1O | No toxicity | No toxicity | No toxicity | No toxicity | – | – |
| – | – | – | – | 14 µM | 16.8 µM | – | 12.2 µM | C[C@H]1C[C@@H](n2ncc3c(N)ncnc32)[C@H](O)[C@@H]1O | No toxicity | No toxicity | No toxicity | No toxicity | – | – |

More lines, now with the values behind:

| Compound | IC50 (Trypanosoma brucei [1]) | IC50 (Trypanosoma brucei [2]) | IC50 (Trypanosoma brucei [3]) | IC50 (Trypanosoma brucei [4]) | IC50 (Trypanosoma brucei [5]) | IC50 (Trypanosoma brucei [6]) | IC50 (Trypanosoma brucei [7]) | IC50 (Trypanosoma brucei [8]) | Cytotoxic activity (Vero) | Cytotoxic activity (HeLa) | Cytotoxic activity (HEL) | Cytotoxic activity (E6SM) | Inhibition (Trypanosoma brucei [9]) | Inhibition (Trypanosoma brucei [10]) |
| --- | --- | --- | --- | --- | --- | --- | --- | --- | --- | --- | --- | --- | --- | --- |
| Nc1ncnc2c1cnn2[C@H]1C=C[C@@H](O)C1 | > 100 µM | > 100 µM | > 100 µM | > 100 µM | – | – | – | – | No toxicity | No toxicity | No toxicity | No toxicity | – | – |
| Nc1ncnc2c1cnn2[C@@H]1C=C[C@@H](O)[C@H]1O | > 100 µM | > 100 µM | > 100 µM | > 100 µM | – | – | – | – | No toxicity | No toxicity | No toxicity | No toxicity | – | – |
| Nc1ncnc2c1cnn2[C@@H]1C=C[C@H](O)C1 | > 100 µM | > 100 µM | – | – | – | – | – | – | No toxicity | No toxicity | No toxicity | No toxicity | – | – |
| Nc1ncnc2c1ccn2[C@H]1C[C@@H](O)[C@H](O)[C@@H]1O | – | – | – | – | 1.55 µM | – | 5.3 µM | 0.85 µM | inactive | Non-toxic | inactive | inactive | – | – |
| Nc1ncnc2c1cnn2[C@H]1CC[C@H](O)[C@@H]1O | – | – | – | – | – | – | – | – | No toxicity | No toxicity | No toxicity | No toxicity | 23% | 37% |
